Experimental data reported in US9296778B2, “3′,5′-cyclic phosphate prodrugs for HCV infection” (Idenix Pharmaceuticals, Inc., priority 2012, dated 2016).

How the values were obtained:
[1] = tested on: genotype 1b HCV replicon; assay: genotype 1b HCV replicon-bearing Huh-7 cells (Table 5); format: cell-based
From the text: In vivo Z4 and Z2 appear to be effectively liver-targeted with a high liver:plasma ratio of drug metabolites. Both prodrugs are readily converted to the triphosphate (TP) metabolite in the liver of mice and monkey producing more TP than GS-7977. […] The in vitro antiviral inactivity of Z4 and Z2 is thought to reflect an inability of Huh-7 replicon cells to metabolize the prodrug moiety.

[2] = biological target: T1, cathepsin A (CatA) (Homo sapiens, UniProt P10619); assay: CatA hydrolysis assay; format: in vitro ADME; details: 100 μM compound, 37° C., 18 h
T1 construct: purchased R & D Systems (Minneapolis, Minn.)
T1 sequence (P10619 29-326 limits assumed): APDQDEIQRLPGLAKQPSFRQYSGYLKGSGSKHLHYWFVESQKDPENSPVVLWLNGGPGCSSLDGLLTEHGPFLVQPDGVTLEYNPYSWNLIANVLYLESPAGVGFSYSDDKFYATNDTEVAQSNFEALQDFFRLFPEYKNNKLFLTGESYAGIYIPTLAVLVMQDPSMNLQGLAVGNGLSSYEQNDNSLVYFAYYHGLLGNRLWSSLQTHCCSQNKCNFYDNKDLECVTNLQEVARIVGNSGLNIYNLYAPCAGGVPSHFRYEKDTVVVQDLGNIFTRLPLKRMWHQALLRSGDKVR
T1 sequence (P10619 327-480 limits assumed): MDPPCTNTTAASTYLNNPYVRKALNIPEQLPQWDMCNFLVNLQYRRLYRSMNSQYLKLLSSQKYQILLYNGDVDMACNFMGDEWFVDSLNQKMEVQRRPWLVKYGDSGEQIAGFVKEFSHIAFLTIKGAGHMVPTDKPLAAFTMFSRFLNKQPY
Method: CatA, cathepsin L (CatL) and CES1 were purchased from R & D Systems (Minneapolis, Minn.). Prior to the enzymatic hydrolysis reactions, CatA was activated according to the manufacturer's instruction. Briefly, CatA (0.05 μg/μL) was incubated with CatL (0.005 μg/μL) for 30 min at 37° C. in 25 mM MES pH 6.0 containing 5 mM DTT. The reaction was stopped by addition of the CatL specific inhibitor E64 (10 μM).
The CatA assay was performed at 37° C. The reaction mixture contained 25 mM MES buffer pH 6.0, 100 mM NaCl, 4 mM DTT and 100 μM of the compound. The reaction was started by addition of the activated CatA enzyme to a final concentration of 0.005 μg/μL. One hundred-μL aliquots were taken after 0.5 min, 3 hrs and 18 hrs of incubation. Reactions were stopped by mixing the sample with an equal volume of ice-cold methanol, and were loaded on a HPLC for analysis.
(§1) Samples were analyzed by HPLC using 5μ C-18, 4.6×250 mm Phenomenex® Columbus column (Phenomenex USA, CA). The mobile phase consisted of buffer A (25 mM potassium phosphate with 5 mM tetrabutylammonium dihydrogen phosphate pH 6.3) and buffer B (100% methanol).

[3] = Liver TP (Table 5); format: in vivo
[4] = biological target: T2, carboxylesterase 1 (CES1) (Homo sapiens, UniProt P23141); assay: CES1 hydrolysis assay; format: in vitro ADME; details: for CES1 hydrolysis: 100 μM compound, 37° C.
T2 construct: purchased R & D Systems (Minneapolis, Minn.)
T2 sequence (P23141 18-567): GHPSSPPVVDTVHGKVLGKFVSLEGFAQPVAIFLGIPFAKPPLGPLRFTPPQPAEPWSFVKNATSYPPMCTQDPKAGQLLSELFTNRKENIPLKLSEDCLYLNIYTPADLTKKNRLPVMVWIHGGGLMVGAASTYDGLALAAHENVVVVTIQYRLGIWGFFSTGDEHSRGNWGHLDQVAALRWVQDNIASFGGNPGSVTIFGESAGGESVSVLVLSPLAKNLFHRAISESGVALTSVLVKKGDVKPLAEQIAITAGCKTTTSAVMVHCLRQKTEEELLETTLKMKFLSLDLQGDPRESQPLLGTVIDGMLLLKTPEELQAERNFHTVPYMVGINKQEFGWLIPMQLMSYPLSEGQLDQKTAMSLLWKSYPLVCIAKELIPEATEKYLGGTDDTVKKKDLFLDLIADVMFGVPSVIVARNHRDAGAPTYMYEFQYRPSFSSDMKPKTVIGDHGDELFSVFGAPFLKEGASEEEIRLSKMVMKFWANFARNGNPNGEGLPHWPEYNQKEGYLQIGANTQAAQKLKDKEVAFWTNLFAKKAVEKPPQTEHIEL
Method: CES1 assay was performed at 37° C. in the reaction mixture containing 50 mM Tris/HCl buffer pH 7.5 and 100 μM of the compound. Reaction was started by addition of the CES1 to the final concentration 0.01 μg/mL. 100 μL aliquots were taken after 0.5 min, 3 hrs and 21 hrs of the incubation and the reaction was stopped by mixing with 100 μl of the ice-cold methanol prior to HPLC analysis.
as §1

[5] = tested on: Huh-7 cells; assay: Release of active metabolite in Huh-7 cells; format: in vitro ADME, human; details: Huh-7 cells, AUC0-72
Method: Huh-7 cells were plated in 1 mL culture medium (DMEM, containing glucose, L-glutamine and sodium pyruvate, 10% FBS, 100 IU/mL penicillin, 100 μg/mL streptomycin, 2 mM GlutaMAX, 1% MEM non-essential amino acids) at the concentration 0.8, 0.4 and 0.2 million cells per well on 6 well plates for 24, 48 and 72 hr treatment, respectively. Plated cells were incubated overnight at 37° C. in an incubator.
The following morning compounds was diluted to 20 μM from a stock solution in DMSO in fresh culture medium pre-warmed to 37° C. and 1 mL of the solution/well was added to cells. A final medium volume per well was 2.0 mL, Compound concentration in well was 10 μM and final DMSO concentration was 0.1%.
After 24, 48 or 72 hr, the medium was carefully removed and cell monolayers were washed twice with 2 mL ice-cold PBS per well. Following the last wash, all PBS was carefully removed and 1.0 mL of extraction solution (ice-cold 70% methanol) added. The plate was tightly covered with Parafilm, plastic plate cover and Parafilm again and an intracellular content was extracted at −20° C. for 24 hr.
After 24 hr extracts were transferred into polypropylene microfuge tubes and dried on a refrigerated centrivap concentrator. Dry residues were reconstituted in 250 μL of HPLC-grade water and centrifuged at 16,000×g for 10 min. Aliquots (100 μL each) of the supernatants were transferred into a 96 well plate and internal standard (4 ng/mL final concentration) was added as the internal standard (IS) for LC-MS/MS analysis.

[6] = tested on: HCV genotype 1b replicon; assay: HCV Replicon Assay; format: cell-based; details: Hepatitis C virus, 72 h, read-out: HCV Replicon EC50
Procedure, shortened: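 Zluc Huh-7 cells with HCV genotype 1b replicon and luciferase reporter treated with 5-fold dilutions (100 μM to 0.0000512 μM final) in duplicate, or at 1 and 10 μM. Luminescence read with ONE-glo; EC50 from dose-response fits, or % inhibition at the fixed concentrations.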

[7] = cytotoxicity evaluation (CellTiter-Blue Cell Viability Assay); details: human

In the case of `CC(C)OC(=O)[C@H](C)N[P@@](=O)(OC[C@H]1O[C@@H](n2ccc(=O)[nH]c2=O)[C@](C)(F)[C@@H]1O)Oc1ccccc1` [PSI-7976], the EC50 [1] is reported as 2080 nM, the CatA hydrolysis [2] is reported as 10% @ 18 h and the “Liver TP” value [3] is reported as 310 pmol·h/g. The “hydrolysis by CES1 (in words)” value [4] was “preferentially hydrolyzed”, the CES1 hydrolysis ([4]; 3 h) was 56%/3 h; and the CES1 hydrolysis ([4]; 21 h) was 94%/21 h. The “Huh-7 AUC0-72” value [5] was 6527 pmol * hr/10^6cells.

For `CCOc1nc(N)nc2c1ncn2[C@@H]1O[C@@H]2COP(=O)(Oc3ccc(C[C@H](NC(=O)OC)C(=O)OC(C)C)cc3)O[C@H]2[C@@]1(C)F` (stereo partly drawn) [Compound 13], the EC50 [6] was less than 250 nM and the CC50 [7] was greater than 50000 nM.
